pKi: −log10 of the molar value. Read-outs that look alike come from different tables or passages of the source. Values belong to the compound of their own block, whether it stands above or below them.
Experiments:
NET = NET (Homo sapiens, UniProt P23975); experiment: Receptor binding, NET; conditions: read-out: Setiptiline (Ki)
From the text: (§1) 5HT3 antagonists are used to treat various maladies of the gastrointestinal tract, such as irritable bowel syndrome-diarrhea predominant and nausea and vomiting associated with chemotherapy. One potentially serious side effect of strong 5HT3 antagonists is constipation, which in some cases may be so severe as to lead to ischemic colitis.

α1, non-selective [1] = experiment: Receptor binding, α1 non-selective; conditions: read-out: Setiptiline (Ki)
From the text: as §1

α2, non-selective [2] = experiment: Receptor binding, α2 non-selective; conditions: read-out: Setiptiline (Ki)
From the text: as §1

SERT = SERT (Homo sapiens, UniProt P31645); experiment: Receptor binding, SERT; conditions: read-out: Setiptiline (Ki)
From the text: as §1

5HT2C [3] = biological target: T1, 5HT2C (Homo sapiens, UniProt P28335); experiment: Receptor binding, 5HT2C; conditions: 5HT2C receptor; read-out: Setiptiline (Ki)
From the text: as §1

5HT3 [4] = biological target: T2, 5HT3 (Homo sapiens, UniProt P46098); experiment: Receptor binding, 5HT3; conditions: 5HT3 receptor; read-out: Setiptiline (Ki)
T2 sequence (P46098 24-478): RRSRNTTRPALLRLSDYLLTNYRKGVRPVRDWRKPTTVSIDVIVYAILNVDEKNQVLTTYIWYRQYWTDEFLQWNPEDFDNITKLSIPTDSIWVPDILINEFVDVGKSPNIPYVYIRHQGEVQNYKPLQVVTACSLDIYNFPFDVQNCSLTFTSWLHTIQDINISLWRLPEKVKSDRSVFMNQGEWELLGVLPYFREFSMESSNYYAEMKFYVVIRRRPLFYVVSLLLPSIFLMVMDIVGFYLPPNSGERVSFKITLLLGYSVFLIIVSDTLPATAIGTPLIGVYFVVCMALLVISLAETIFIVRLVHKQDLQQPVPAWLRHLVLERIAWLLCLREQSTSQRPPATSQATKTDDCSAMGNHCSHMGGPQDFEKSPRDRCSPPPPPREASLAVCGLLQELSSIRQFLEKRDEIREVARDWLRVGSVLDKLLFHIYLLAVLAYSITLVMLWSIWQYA
From the text: as §1

5HT2, non-selective [5] = experiment: Receptor binding, 5HT2 non-selective; conditions: 5HT2, non-selective receptor; read-out: Setiptiline (Ki)
From the text: as §1

Muscarinic M1 = biological target: T3, Muscarinic M1 (Homo sapiens, UniProt P11229); experiment: Receptor binding, Muscarinic M1; conditions: read-out: Setiptiline (Ki)
T3 sequence (P11229 1-460): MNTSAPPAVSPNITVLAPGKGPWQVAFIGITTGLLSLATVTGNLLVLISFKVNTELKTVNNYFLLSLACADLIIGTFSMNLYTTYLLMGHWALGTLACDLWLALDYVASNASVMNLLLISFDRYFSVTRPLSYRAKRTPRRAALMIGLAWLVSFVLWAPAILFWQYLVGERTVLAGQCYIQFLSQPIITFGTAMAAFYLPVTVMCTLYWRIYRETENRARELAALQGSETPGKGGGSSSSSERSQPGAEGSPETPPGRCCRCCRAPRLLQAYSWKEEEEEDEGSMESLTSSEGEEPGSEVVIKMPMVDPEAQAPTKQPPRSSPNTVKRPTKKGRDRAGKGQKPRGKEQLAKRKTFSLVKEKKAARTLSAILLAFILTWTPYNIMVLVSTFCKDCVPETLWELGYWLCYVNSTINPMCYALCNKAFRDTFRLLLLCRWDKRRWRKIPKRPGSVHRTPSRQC
From the text: as §1

5HT2C [6] = biological target: T1, 5HT2C; conditions: read-out: Mirtazapine (Ki); 5HT2C receptor; from de Boer et al., 1996; cited from earlier work
α1, non-selective [7] = conditions: read-out: Mirtazapine (Ki); α1, non-selective receptor; from de Boer et al., 1996; cited from earlier work
5HT2, non-selective [8] = conditions: read-out: Mirtazapine (Ki); 5HT2, non-selective receptor; from de Boer et al., 1996; cited from earlier work
5HT3 [9] = biological target: T2, 5HT3; conditions: read-out: Mirtazapine (Ki); 5HT3 receptor; from de Boer et al., 1996; cited from earlier work
α2, non-selective [10] = conditions: read-out: Mirtazapine (Ki); α2, non-selective receptor; from de Boer et al., 1996; cited from earlier work
[11] = biological target: T4, 5HT1A sertotonin receptor (Homo sapiens, UniProt P08908); experiment: Affinity for the 5HT1A serotonin receptor; format: binding; conditions: read-out: affinity for the 5HT1A sertotonin receptor (pKi) (converted)
T4 sequence (P08908 1-422): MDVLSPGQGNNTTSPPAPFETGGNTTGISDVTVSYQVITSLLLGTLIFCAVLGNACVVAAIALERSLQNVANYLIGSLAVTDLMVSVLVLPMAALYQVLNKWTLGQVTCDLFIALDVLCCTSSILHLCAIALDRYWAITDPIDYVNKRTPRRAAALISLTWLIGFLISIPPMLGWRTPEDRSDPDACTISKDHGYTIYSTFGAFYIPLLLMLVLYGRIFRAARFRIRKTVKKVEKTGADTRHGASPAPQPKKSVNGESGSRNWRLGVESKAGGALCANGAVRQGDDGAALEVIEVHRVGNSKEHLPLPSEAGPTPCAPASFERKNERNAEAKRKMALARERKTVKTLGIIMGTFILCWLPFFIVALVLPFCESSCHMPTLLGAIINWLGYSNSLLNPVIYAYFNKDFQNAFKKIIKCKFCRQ

T1 sequence (P28335 33-458, species assumed): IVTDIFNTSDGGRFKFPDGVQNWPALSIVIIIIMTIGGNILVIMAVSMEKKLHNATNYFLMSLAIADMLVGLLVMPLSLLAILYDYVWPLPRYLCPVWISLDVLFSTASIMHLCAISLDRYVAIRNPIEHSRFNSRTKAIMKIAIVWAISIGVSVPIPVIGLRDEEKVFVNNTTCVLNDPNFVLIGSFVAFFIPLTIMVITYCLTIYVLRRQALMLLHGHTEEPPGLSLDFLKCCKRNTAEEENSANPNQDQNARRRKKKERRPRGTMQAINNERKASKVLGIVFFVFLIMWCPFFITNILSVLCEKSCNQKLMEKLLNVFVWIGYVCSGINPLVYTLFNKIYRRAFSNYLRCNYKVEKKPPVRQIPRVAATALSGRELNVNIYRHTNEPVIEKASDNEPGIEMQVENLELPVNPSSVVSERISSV
Chain of SERT (P31645 whole entry, species assumed): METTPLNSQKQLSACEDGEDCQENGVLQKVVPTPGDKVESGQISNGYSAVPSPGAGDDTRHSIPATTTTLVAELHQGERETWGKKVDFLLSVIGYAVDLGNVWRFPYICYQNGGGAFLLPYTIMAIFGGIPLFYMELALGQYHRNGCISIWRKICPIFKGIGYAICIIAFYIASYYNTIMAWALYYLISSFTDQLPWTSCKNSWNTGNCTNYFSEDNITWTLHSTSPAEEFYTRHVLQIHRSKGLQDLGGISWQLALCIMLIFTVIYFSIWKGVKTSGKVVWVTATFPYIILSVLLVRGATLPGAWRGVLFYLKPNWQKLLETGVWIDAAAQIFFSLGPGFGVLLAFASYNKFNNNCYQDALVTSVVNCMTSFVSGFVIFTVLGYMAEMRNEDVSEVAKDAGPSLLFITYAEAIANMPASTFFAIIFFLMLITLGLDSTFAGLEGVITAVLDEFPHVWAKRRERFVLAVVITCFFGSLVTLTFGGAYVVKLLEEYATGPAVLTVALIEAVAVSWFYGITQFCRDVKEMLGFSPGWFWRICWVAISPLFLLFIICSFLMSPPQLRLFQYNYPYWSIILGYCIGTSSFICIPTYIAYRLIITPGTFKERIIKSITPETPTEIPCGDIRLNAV
Chain of NET (P23975 whole entry): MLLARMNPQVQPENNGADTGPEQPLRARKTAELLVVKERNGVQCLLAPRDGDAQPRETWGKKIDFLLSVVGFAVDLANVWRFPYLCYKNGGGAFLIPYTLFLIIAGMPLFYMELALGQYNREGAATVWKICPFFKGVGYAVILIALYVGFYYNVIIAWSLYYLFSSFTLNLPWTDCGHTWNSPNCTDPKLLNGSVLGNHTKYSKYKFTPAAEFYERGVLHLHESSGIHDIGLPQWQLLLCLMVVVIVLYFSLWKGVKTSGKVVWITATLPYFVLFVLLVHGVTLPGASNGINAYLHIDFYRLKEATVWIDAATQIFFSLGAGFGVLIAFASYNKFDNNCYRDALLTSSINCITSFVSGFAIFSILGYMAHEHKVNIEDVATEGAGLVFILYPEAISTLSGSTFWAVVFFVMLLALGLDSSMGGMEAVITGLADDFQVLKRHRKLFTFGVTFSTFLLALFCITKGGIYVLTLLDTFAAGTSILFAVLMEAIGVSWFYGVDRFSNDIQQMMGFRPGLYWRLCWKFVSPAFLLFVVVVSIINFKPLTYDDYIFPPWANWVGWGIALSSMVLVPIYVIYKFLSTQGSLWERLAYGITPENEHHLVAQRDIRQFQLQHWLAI

- pKi (NET): 5.71
- pKi (α1, non-selective [1]): 6.84
- pKi (α2, non-selective [2]): 7.03
- pKi (SERT): < 5.00
- pKi (5HT2C [3]): 9.33
- pKi (5HT3 [4]): 6.12
- pKi (5HT2, non-selective [5]): 9.15
- pKi (Muscarinic M1): 6.59
SMILES: CN1CCC2=C(C1)c1ccccc1Cc1ccccc12

SMILES: CN1CCN2c3ncccc3Cc3ccccc3C2C1 (centres unmarked) [Mirtazapine]
- pKi (5HT2C [6]): 7.89
- pKi (α1, non-selective [7]): 6.30
- pKi (5HT2, non-selective [8]): 8.20
- pKi (5HT3 [9]): 7.10
- pKi (α2, non-selective [10]): 7.30

- Ki [11]: 0.0851 µM
SMILES: CC1CN(c2cccc(Cl)c2)CCN1CCCn1nc2ccccn2c1=O (centres unmarked) [MER 810]

Source: US20060039867A1, “Method for treating sleep-related breathing disorders with setiptiline” (Cypress Bioscience, Inc., priority 2004, published 2006)
